Literature values, collected in patent US20030056236A1, “Model” (priority 2001, published 2003).

Tested on: 5-HIAA levels
Settings: after treatment; for elevate 5-HIAA levels: rat medial prefrontal cortex; for effect on 5-HIAA levels in the striatum: rat striatum

| SMILES | elevate 5-HIAA levels | effect on 5-HIAA levels in the striatum |
| --- | --- | --- |
| Cc1nc2n(c(=O)c1CCN1CCC(c3noc4cc(F)ccc34)CC1)CCCC2 [Risperidone] | elevate | no effect |
| CCNC(=O)N1CCN(CCCC(c2ccc(F)cc2)c2ccc(F)cc2)CC1 [amperozide] | elevate | no effect |
| Cc1nc2sccn2c(=O)c1CCN1CCC(=C(c2ccc(F)cc2)c2ccc(F)cc2)CC1 [ritanserin] | to a lesser extent | no effect |
